32 compounds from patent publication US20050009840A1 (SUGEN, INC., priority 2003, published 2005) can be followed below.

T1 sequence (P08581 974-1390 limits assumed): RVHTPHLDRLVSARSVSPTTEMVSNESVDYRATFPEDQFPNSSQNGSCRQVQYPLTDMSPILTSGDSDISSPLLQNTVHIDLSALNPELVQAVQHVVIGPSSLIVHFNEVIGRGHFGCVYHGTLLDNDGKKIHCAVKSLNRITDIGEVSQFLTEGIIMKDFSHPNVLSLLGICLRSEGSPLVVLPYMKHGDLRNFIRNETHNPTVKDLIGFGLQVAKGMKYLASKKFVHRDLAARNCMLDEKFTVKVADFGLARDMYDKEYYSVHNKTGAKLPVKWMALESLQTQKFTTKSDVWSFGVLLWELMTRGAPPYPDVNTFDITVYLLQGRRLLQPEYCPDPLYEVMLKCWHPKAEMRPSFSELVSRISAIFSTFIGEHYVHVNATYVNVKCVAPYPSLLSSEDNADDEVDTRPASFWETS

One experiment has as its target T1, HGFR (Homo sapiens, UniProt P08581).
T1 construct: purchased Upstate 14-526
Put plainly: HGFR continuous-coupled spectrophotometric assay. To be noted: Table 3, column 'Ki (μM) or I (%)': cells without % sign; read-out: Ki. In kind it is biochemical.
By Ki is commonly meant a measure of affinity in units of concentration, obtained from inhibition or displacement. On to `CC(Oc1cc(-c2ccc(F)c(C#N)c2)cnc1N)c1c(Cl)ccc(F)c1Cl` (centres unmarked) [Example I-544, 5-{6-Amino-5-[1-(2,6-dichloro-3-fluoro-phenyl)-ethoxy]-pyridin-3-yl}-2-fluoro-benzonitrile], for which the Ki worked out at 0.091 µM.

Regarding `CC(Oc1cc(-c2ccc(C(=O)N3CCCCC3)cc2)cnc1N)c1c(Cl)ccc(F)c1Cl` (centres unmarked) [Example I-546, (4-{6-Amino-5-[1-(2,6-dichloro-3-fluoro-phenyl)-ethoxy]-pyridin-3-yl}-phenyl)-pipendin-1-yl-methanone], the inhibition constant (Ki) amounted to 0.057 µM.

Take `CC(Oc1cc(-c2ccc(C(=O)N3CCCC3)cc2)cnc1N)c1c(Cl)ccc(F)c1Cl` (centres unmarked) [Example I-547, (4-{6-Amino-5-[1-(2,6-dichloro-3-fluoro-phenyl)-ethoxy]-pyridin-3-yl}-phenyl)-pyrrolidin-1-yl-methanone]: the inhibitory constant (Ki) worked out at 0.067 µM.

As for `CC(Oc1cc(-c2ccc(CN3C[C@@H](C)N[C@@H](C)C3)cc2)cnc1N)c1c(Cl)ccc(F)c1Cl` (some centres unmarked) [Example I-549, 3-[1-(2,6-Dichloro-3-fluoro-phenyl)-ethoxy]-5-[4-(dimethyl-piperazin-1-ylmethyl)-phenyl]-pyridin-2-ylamine], the inhibition constant Ki came out at 0.095 µM.

Regarding `CC(Oc1cc(-c2ccc(C(=O)N3C[C@@H](C)N[C@@H](C)C3)c(F)c2)cnc1N)c1c(Cl)ccc(F)c1Cl` (some centres unmarked) [Example I-551, (4-{6-Amino-5-[1-(2,6-dichloro-3-fluoro-phenyl)-ethoxy]-pyridin-3-yl}-2-fluoro-phenyl)-(dimethyl-piperazin-1-yl)-methanone], the Ki amounted to 0.091 µM.

Consider `CC(Oc1cc(-c2ccc(C(=O)N3C[C@@H](C)N[C@@H](C)C3)cc2F)cnc1N)c1c(Cl)ccc(F)c1Cl` (some centres unmarked) [Example I-552, (4-{6-Amino-5-[1-(2,6-dichloro-3-fluoro-phenyl)-ethoxy]-pyridin-3-yl}-3-fluoro-phenyl)-(dimethyl-piperazin-1-yl)-methanone], for which the Ki was determined as 0.224 µM.

In the case of `Cc1cc(C(=O)N2C[C@@H](C)N[C@@H](C)C2)ccc1-c1cnc(N)c(OC(C)c2c(Cl)ccc(F)c2Cl)c1` (some centres unmarked) [Example I-553, (4-{6-Amino-5-[1-(2,6-dichloro-3-fluoro-phenyl)-ethoxy]-pyridin-3-yl)-3-methyl-phenyl)-(dimethyl-piperazin-1-yl)-methanone], the inhibitory constant (Ki) worked out at 0.259 µM.

For `CC(Oc1cc(-c2ccc(C(=O)N3C[C@@H](C)O[C@@H](C)C3)cc2)cnc1N)c1c(Cl)ccc(F)c1Cl` (stereo partly drawn) [Example I-554, (4-{6-Amino-5-[1-(2,6-dichloro-3-fluoro-phenyl)-ethoxy]-pyridin-3-yl}-phenyl)-((2R,6S)-2,6-dimethyl-morpholin-4-yl)-methanone], the Ki is 0.141 µM.

With `COc1ccc(OC)c(-c2cnc(N)c(OC(C)c3c(Cl)ccc(F)c3Cl)c2)c1` (centres unmarked) [Example I-556, 3-[1-(2,6-Dichloro-3-fluoro-phenyl)-ethoxy]-5-(2,5-dimethoxy-phenyl)-pyridin-2-ylamine], the inhibition constant Ki was found to be 0.575 µM.

Turning to `COc1ccc(-c2cnc(N)c(OC(C)c3c(Cl)ccc(F)c3Cl)c2)c(OC)c1` (centres unmarked) [Example I-557, 3-[1-(2,6-Dichloro-3-fluoro-phenyl)-ethoxy]-5-(2,4-dimethoxy-phenyl)-pyridin-2-ylamine], the Ki amounted to 0.217 µM.

As to `COc1ccccc1-c1cnc(N)c(OC(C)c2c(Cl)ccc(F)c2Cl)c1` (centres unmarked) [Example I-566, 3-[1-(2,6-Dichloro-3-fluoro-phenyl)-ethoxy]-5-(2-methoxy-phenyl)-pyridin-2-ylamine], the inhibition constant (Ki) stood at 0.278 µM.

As for `CC(Oc1cc(-c2ccc(C(=O)N3CCOCC3)cc2)cnc1N)c1c(Cl)ccc(F)c1Cl` (centres unmarked) [Example I-568, (4-{6-Amino-5-[1-(2,6-dichloro-3-fluoro-phenyl)-ethoxy]-pyridin-3-yl}-phenyl)-morpholin-4-yl-methanone], the inhibition constant Ki came to 0.0525 µM.

As for `CC(Oc1cc(-c2ccc(C(=O)N3C[C@@H](C)N[C@@H](C)C3)c(Cl)c2)cnc1N)c1c(Cl)ccc(F)c1Cl` (stereo partly drawn) [Example I-569, (4-{6-Amino-5-[1-(2,6-dichloro-3-fluoro-phenyl)-ethoxy]-pyridin-3-yl}-2-chloro-phenyl)-((3R,5S)-dimethyl-piperazin-1-yl)-methanone], the Ki worked out at 0.0478 µM.

With `Cc1cc(-c2cnc(N)c(OC(C)c3c(Cl)ccc(F)c3Cl)c2)ccc1C(=O)N1C[C@@H](C)N[C@@H](C)C1` (some centres unmarked) [Example I-570], the inhibitory constant (Ki) came out at 0.225 µM.

Turning to `CC(Oc1cc(-c2ccc(CN3C[C@@H](C)O[C@@H](C)C3)cc2)cnc1N)c1c(Cl)ccc(F)c1Cl` (stereo partly drawn) [Example I-571, 3-[1-(2,6-Dichloro-3-fluoro-phenyl)-ethoxy]-5-[4-((2R,6S)-2,6-dimethyl-morpholin-4-ylmethyl)-phenyl]-pyridin-2-ylamine], the inhibitory constant (Ki) was 0.22 µM.

Take `CC(Oc1cc(-c2ccc(CN3CCOCC3)cc2)cnc1N)c1c(Cl)ccc(F)c1Cl` (centres unmarked) [Example I-572, 3-[1-(2,6-Dichloro-3-fluoro-phenyl)-ethoxy]-5-(4-morpholin-4-ylmethyl-phenyl)-pyridin-2-ylamine]: the Ki was determined as 0.0554 µM.

Take `CC(Oc1cc(-c2ccc(C(=O)N3CCCN(C)CC3)cc2)cnc1N)c1c(Cl)ccc(F)c1Cl` (centres unmarked) [Example I-603, (4-{6-Amino-5-[1-(2,6-dichloro-3-fluoro-phenyl)-ethoxy]-pyridin-3-yl}-phenyl)-(4-methyl-[1,4]-diazepan-1-yl)-methanone]: the Ki was determined as 0.0095 µM.

Regarding `CC(Oc1cc(-c2ccc(C(=O)N3CCCNCC3)cc2)cnc1N)c1c(Cl)ccc(F)c1Cl` (centres unmarked) [Example I-604, (4-{6-Amino-5-[1-(2,6-dichloro-3-fluoro-phenyl)-ethoxy]-pyridin-3-yl}-phenyl)-[1,4]diazepan-1-yl-methanone], the Ki was 0.031 µM.

As to `CC(Oc1cc(-c2ccc(C(=O)N3CCNCC3)cc2)cnc1N)c1c(Cl)ccc(F)c1Cl` (centres unmarked) [Example I-605, (4-{6-Amino-5-[1-(2,6-dichloro-3-fluoro-phenyl)-ethoxy]-pyridin-3-yl}-phenyl)-piperazin-1-yl-methanone], the inhibition constant (Ki) turned out to be 0.0475 µM.

On to `C=Cc1cnc(N)c(OC(C)c2c(Cl)ccc(F)c2Cl)c1` (centres unmarked) [Example I-606, 3-[1-(2,6-Dichloro-3-fluoro-phenyl)-ethoxy]-5-vinyl-pyridin-2-ylamine], for which the Ki is 0.655 µM.

As for `CC(Oc1cc(-c2ccc(C(=O)N3C[C@@H](O)[C@@H](O)C3)cc2)cnc1N)c1c(Cl)ccc(F)c1Cl` (stereo partly drawn) [Example I-607, (4-{6-Amino-5-[1-(2,6-dichloro-3-fluoro-phenyl)-ethoxy]-pyridin-3-yl}-phenyl)-((3R,4S)-3,4-dihydroxy-pyrrolidin-1-yl)-methanone], the Ki stood at 0.058 µM.

For `CC(Oc1cc(-c2ccc(C(=O)NC3CNC3)cc2)cnc1N)c1c(Cl)ccc(F)c1Cl` (centres unmarked) [Example I-609, 4-{6-Amino-5-[1-(2,6-dichloro-3-fluoro-phenyl)-ethoxy]-pyridin-3-yl}-N-azetidin-3-yl-benzamide], the Ki was determined as 0.045 µM.

As to `CC(Oc1cc(-c2ccc(S(=O)(=O)N(C)C)cc2)cnc1N)c1c(Cl)ccc(F)c1Cl` (centres unmarked) [Example I-610, 4-{6-Amino-5-[1-(2,6-dichloro-3-fluoro-phenyl)-ethoxy]-pyridin-3-yl}-N,N-dimethyl-benzenesulfonamide], the inhibition constant (Ki) worked out at 0.069 µM.

On to `CCN1CCN(C(=O)c2ccc(-c3cnc(N)c(OC(C)c4c(F)ccc(F)c4Cl)c3)cc2)CC1` (centres unmarked) [Example I-622, (4-{6-Amino-5-[1-(2-chloro-3,6-difluoro-phenyl)-ethoxy]-pyridin-3-yl}-phenyl)-(4-ethyl-piperazin-1-yl)-methanone], for which the Ki was found to be 0.375 µM.

As for `CC(Oc1cc(-c2ccc(C(=O)N3CC4C(N)C4C3)cc2)cnc1N)c1c(Cl)ccc(F)c1Cl` (centres unmarked) [Example I-635, (6-Amino-3-aza-bicyclo[3.1.0]hex-3-yl)-(4-{6-amino-5-[1-(2,6-dichloro-3-fluoro-phenyl)-ethoxy]-pyridin-3-yl}-phenyl)-methanone], the inhibition constant (Ki) came to 0.0554 µM.

Turning to `CC(Oc1cc(-c2ccc(OCCN3CCOCC3)nc2)cnc1N)c1c(Cl)ccc(F)c1Cl` (centres unmarked) [Example I-636, 5-[1-(2,6-Dichloro-3-fluoro-phenyl)-ethoxy]-6′-(2-morpholin-4-yl-ethoxy)-[3,3′]bipyridinyl-6-ylamine], the Ki amounted to 0.109 µM.

As for `CC(Oc1cc(-c2ccc(=O)n(CCN3CCCC3)c2)cnc1N)c1c(Cl)ccc(F)c1Cl` (centres unmarked) [Example I-637, 6′-Amino-5′-[1-(2,6-dichloro-3-fluoro-phenyl)-ethoxy]-1-(2-pyrrolidin-1-yl-ethyl)-1H-[3,3′]-bipyridinyl-6-one], the Ki is 0.692 µM.

Regarding `CC(Oc1cc(-c2ccc(OCCN3CCCC3)nc2)cnc1N)c1c(Cl)ccc(F)c1Cl` (centres unmarked) [Example I-638, 5-[1-(2,6-Dichloro-3-fluoro-phenyl)-ethoxy]-6′-(2-pyrrolidin-1-yl-ethoxy)-[3,3′]bipyridinyl-6-ylamine], the Ki amounted to 0.094 µM.

Regarding `CC(Oc1cc(-c2ccc(=O)n(CCC3CCCN3C)c2)cnc1N)c1c(Cl)ccc(F)c1Cl` (centres unmarked) [Example I-639, 6′-Amino-5′-[1-(2,6-dichloro-3-fluoro-phenyl)-ethoxy]-1-[2-(1-methyl-pyrrolidin-2-yl)-ethyl]-1H-[3,3′]bipyridinyl-6-one], the inhibition constant (Ki) came to 0.513 µM.

Still in this experiment, the particulars now being: cells prefixed Ki; read-out: Met Ki.
In the case of `CC(Oc1cc(-c2ccc(OCC(=O)N3CC[C@@H](O)C3)cc2)cnc1N)c1c(Cl)ccc(F)c1Cl` (stereo partly drawn) [Example I-478, 2-(4-{6-Amino-5-[1-(2,6-dichloro-3-fluoro-phenyl)-ethoxy]-pyridin-3-yl}-phenoxy)-1-((R)-3-hydroxy-pyrrolidin-1-yl)-ethanone], the inhibition constant (Ki) is 0.041 µM.

Turning to `CC(Oc1cc(-c2ccc(OCC(=O)N3CCN(C(=O)OC(C)(C)C)CC3)cc2)cnc1N)c1c(Cl)ccc(F)c1Cl` (centres unmarked) [Example I-479, 4-[2-(4-{6-Amino-5-[1-(2,6-dichloro-3-fluoro-phenyl)-ethoxy]-pyridin-3-yl}-phenoxy)-acetyl]-piperazine-1-carboxylic acid tert-butyl ester], the Ki worked out at 0.16 µM.

For `CC(Oc1cc(-c2ccc(OCCN3CCCC3)cc2)cnc1N)c1cccc(F)c1Cl` (centres unmarked) [Example I-487, 3-[1-(2-Chloro-3-fluoro-phenyl)-ethoxy]-5-[4-(2-pyrrolidin-1-yl-ethoxy)-phenyl]-pyridin-2-ylamine], the Ki stood at 3.3 µM.
